What was measured:
[1] = Thermodynamic aqueous solubility; type: physicochemical; conditions: water, equilibrated at 25° C. for 24 hours, HPLC
Method: Aqueous solubility was determined by suspending sufficient compound in water to give a maximum final concentration of ≥20 mg·ml^−1 of the parent free-form of the compound. The suspension was equilibrated at 25° C. for 24 hours then the pH was measured. The suspension was then filtered through a glass fibre C filter into a 96 well plate unless stated otherwise. The filtrate was then diluted by a factor of 101. Quantitation was by HPLC with reference to a standard solution of approximately 0.1 mg·ml^−1 in DMSO. Different volumes of the standard, diluted and undiluted sample solutions were injected. The solubility was calculated using the peak areas determined by integration of the peak found at the same retention time as the principal peak in the standard injection.
Analysis was performed on an Agilent HP1100 series system equipped with a diode array detector and using ChemStation software vB.02.01-SR1.

[2] = Storage stability at 25° C. and 92% RH (XRPD); type: physicochemical; conditions: for Solid form stability on storage: 92% RH/25° C., on glass slide, after a week
Method: A sample of Form E was laid on a glass slide then placed in a box maintained at 92% RH/25° C.

[3] = Storage stability at 40° C. and 75% RH (XRPD); type: physicochemical; conditions: a week
[4] = Gravimetric vapour sorption (GVS); type: physicochemical; conditions: for Solid form stability under the GVS conditions (XRPD after GVS): 25° C., 0-90% RH
Method: Sorption isotherms were obtained using a SMS DVS Intrinsic moisture sorption analyser, controlled by SMS Analysis Suite software. The sample temperature was maintained at 25° C. by the instrument controls. The humidity was controlled by mixing streams of dry and wet nitrogen, with a total flow rate of 200 ml min^−1. The relative humidity was measured by a calibrated Rotronic probe (dynamic range of 1.0-100% RH), located near the sample. The weight change, (mass relaxation) of the sample as a function of % RH was constantly monitored by the microbalance (accuracy ±0.005 mg). Typically 5-20 mg of sample was placed in a tared mesh stainless steel basket under ambient conditions. The sample was loaded and unloaded at 40% RH and 25° C. (typical room conditions). A moisture sorption isotherm was performed as outlined below (2 scans giving 1 complete cycle). The standard isotherm was performed at 25° C. at 10% RH intervals over a 0.5-90% RH range. [table] The sample was recovered after completion of the isotherm and re-analyzed by XRPD.

[5] = molecular target: T1, T877A AR mutant (Homo sapiens, UniProt P10275, T878A); conditions: cited from earlier work
T1 sequence (P10275 1-920 T878A): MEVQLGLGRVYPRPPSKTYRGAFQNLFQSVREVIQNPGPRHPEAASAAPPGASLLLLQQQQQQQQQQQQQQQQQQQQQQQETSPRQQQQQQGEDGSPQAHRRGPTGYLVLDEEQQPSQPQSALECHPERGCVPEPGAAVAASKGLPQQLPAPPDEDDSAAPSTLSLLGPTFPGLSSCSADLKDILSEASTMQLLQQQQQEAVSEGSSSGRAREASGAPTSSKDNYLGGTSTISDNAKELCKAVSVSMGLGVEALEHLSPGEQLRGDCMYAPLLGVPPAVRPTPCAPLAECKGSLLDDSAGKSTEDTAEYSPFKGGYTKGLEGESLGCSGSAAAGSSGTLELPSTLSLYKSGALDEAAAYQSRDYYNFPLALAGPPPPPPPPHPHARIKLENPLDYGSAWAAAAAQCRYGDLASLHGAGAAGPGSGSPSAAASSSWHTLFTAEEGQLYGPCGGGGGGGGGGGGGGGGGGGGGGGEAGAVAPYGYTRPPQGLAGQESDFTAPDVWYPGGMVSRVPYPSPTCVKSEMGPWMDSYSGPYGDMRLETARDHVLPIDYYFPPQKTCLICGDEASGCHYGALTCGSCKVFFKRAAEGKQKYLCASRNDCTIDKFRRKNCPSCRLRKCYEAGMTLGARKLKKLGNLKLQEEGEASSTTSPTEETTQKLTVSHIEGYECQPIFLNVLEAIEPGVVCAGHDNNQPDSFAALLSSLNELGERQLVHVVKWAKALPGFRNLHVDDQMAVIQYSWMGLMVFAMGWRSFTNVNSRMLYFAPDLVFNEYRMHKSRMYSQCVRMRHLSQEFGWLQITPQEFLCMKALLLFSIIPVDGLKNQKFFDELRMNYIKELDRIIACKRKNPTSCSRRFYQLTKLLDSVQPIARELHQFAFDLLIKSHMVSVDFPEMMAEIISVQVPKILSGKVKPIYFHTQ

[6] = Stability under ambient conditions; type: physicochemical; conditions: within a month
[7] = Forcing drying conditions (60° C. at <20 mm Hg); type: physicochemical; conditions: 60° C. at <20 mm Hg for 8 days

SMILES: CNC(=O)c1ccc(N2C(=S)N(c3cnc(C#N)c(C(F)(F)F)c3)C(=O)C23CCC3)cc1F [Form B, 4-[7-(6-cyano-5-trifluoromethylpyridin-3-yl)-8-oxo-6-thioxo-5,7-diazaspiro[3.4]oct-5-yl]-2-fluoro-N-methylbenzamide]
- Aqueous Solubility (mg/mL) [1]: about 0.004 mg/mL
- Solid form stability on storage (XRPD before and after) ([2]; 25° C. and 92% RH for 12 days): stable
- Solid form stability on storage [3]: stable
- Solid form stability under the GVS conditions (XRPD after GVS) [4]: stable
- Hygroscopicity ([4]; GVS at 25° C.): not hygroscopic
- Uptake of water ([4]; GVS isotherm at 25° C., at 90% RH): less than 0.2%

SMILES: CNC(=O)c1ccc(N2C(=S)N(c3cnc(C#N)c(C(F)(F)F)c3)C(=O)C23CCC3)cc1F [Form J, 4-[7-(6-cyano-5-trifluoromethylpyridin-3-yl)-8-oxo-6-thioxo-5,7-diazaspiro[3.4]oct-5-yl]-2-fluoro-N-methylbenzamide]
- Solid form stability on storage [2]: transformed to Form B

SMILES: CC(C)(O)C(=O)Nc1ccc([N+](=O)[O-])c(C(F)(F)F)c1 [hydroxyflutamide]
- Activity in T877A AR mutant [5]: act as AR agonists

SMILES: CNC(=O)c1ccc(N2C(=S)N(c3cnc(C#N)c(C(F)(F)F)c3)C(=O)C23CCC3)cc1F [Form F, 4-[7-(6-cyano-5-trifluoromethylpyridin-3-yl)-8-oxo-6-thioxo-5,7-diazaspiro[3.4]oct-5-yl]-2-fluoro-N-methylbenzamide]
- Solid form stability under ambient conditions [6]: transformed to Form A
- Solid form stability on storage [3]: transformed to Form A

SMILES: CNC(=O)c1ccc(N2C(=S)N(c3cnc(C#N)c(C(F)(F)F)c3)C(=O)C23CCC3)cc1F [Form G, 4-[7-(6-cyano-5-trifluoromethylpyridin-3-yl)-8-oxo-6-thioxo-5,7-diazaspiro[3.4]oct-5-yl]-2-fluoro-N-methylbenzamide]
- Solid form stability on storage [3]: stable

SMILES: CNC(=O)c1ccc(N2C(=S)N(c3cnc(C#N)c(C(F)(F)F)c3)C(=O)C23CCC3)cc1F [Form D, 4-[7-(6-cyano-5-trifluoromethylpyridin-3-yl)-8-oxo-6-thioxo-5,7-diazaspiro[3.4]oct-5-yl]-2-fluoro-N-methylbenzamide]
- Solid form stability on storage [3]: stable

SMILES: CNC(=O)c1ccc(N2C(=S)N(c3cnc(C#N)c(C(F)(F)F)c3)C(=O)C23CCC3)cc1F [Form E, 4-[7-(6-cyano-5-trifluoromethylpyridin-3-yl)-8-oxo-6-thioxo-5,7-diazaspiro[3.4]oct-5-yl]-2-fluoro-N-methylbenzamide]
- Solid form stability on storage [2]: transformed to Form A and a small amount of Form B
- Solid form stability on storage [3]: transformed to Form A
- Solid form stability under the GVS conditions (XRPD after GVS) [4]: transformed to Form A

SMILES: CNC(=O)c1ccc(N2C(=S)N(c3cnc(C#N)c(C(F)(F)F)c3)C(=O)C23CCC3)cc1F [Form C, 4-[7-(6-cyano-5-trifluoromethylpyridin-3-yl)-8-oxo-6-thioxo-5,7-diazaspiro[3.4]oct-5-yl]-2-fluoro-N-methylbenzamide]
- Solid form stability on storage [3]: stable

SMILES: CNC(=O)c1ccc(N2C(=S)N(c3cnc(C#N)c(C(F)(F)F)c3)C(=O)C23CCC3)cc1F [Form A, 4-[7-(6-cyano-5-trifluoromethylpyridin-3-yl)-8-oxo-6-thioxo-5,7-diazaspiro[3.4]oct-5-yl]-2-fluoro-N-methylbenzamide]
- Aqueous Solubility (mg/mL) [1]: about 0.01 mg/mL
- Behaviour under forcing conditions [7]: lost ethanol, the XRPD pattern of the material stayed the same
- Solid form stability on storage [3]: stable

SMILES: CNC(=O)c1ccc(N2C(=S)N(c3cnc(C#N)c(C(F)(F)F)c3)C(=O)C23CCC3)cc1F [Form H, 4-[7-(6-cyano-5-trifluoromethylpyridin-3-yl)-8-oxo-6-thioxo-5,7-diazaspiro[3.4]oct-5-yl]-2-fluoro-N-methylbenzamide]
- Solid form stability on storage [3]: stable

SMILES: CNC(=O)c1ccc(N2C(=S)N(c3cnc(C#N)c(C(F)(F)F)c3)C(=O)C23CCC3)cc1F [Form I, 4-[7-(6-cyano-5-trifluoromethylpyridin-3-yl)-8-oxo-6-thioxo-5,7-diazaspiro[3.4]oct-5-yl]-2-fluoro-N-methylbenzamide]
- Solid form stability on storage [2]: transformed to Form B
